Results reported in US6274715A, “Tricyclic erythromycin derivatives” (priority 1997, dated 2001).
In brackets after ≈: the same amount, converted by molar mass.

Legend:
Assay type in all cases: cell-based
[1] = tested on: STREPTOCOCCUS PYOGENES PIU 2548; assay: In vitro antibacterial activity, MIC, BHI agar dilution; conditions: S. pyogenes PIU 2548, unit assumed
[2] = tested on: PSEUDOMONAS AERUGINOSA DPHD-5263; assay: as above; conditions: P. aeruginosa DPHD-5263, unit assumed
[3] = tested on: KLEBSIELLA PNEUMONIAE ATCC 8045; assay: as above; conditions: K. pneumoniae ATCC 8045, unit assumed
[4] = tested on: STREPTOCOCCUS BOVIS A-5169; assay: as above; conditions: S. bovis A-5169, unit assumed
[5] = tested on: STAPHYLOCOCCUS AUREUS A5177; assay: as above; conditions: S. aureus A5177, unit assumed
[6] = tested on: PSEUDOMONAS AERUGINOSA BMH10; assay: as above; conditions: P. aeruginosa BMH10, unit assumed
[7] = tested on: STAPHYLOCOCCUS AUREUS A-5278; assay: as above; conditions: S. aureus A-5278, unit assumed
[8] = tested on: MYCOBACTERIUM SMEGMATIS ATCC 114; assay: as above; conditions: M. smegmatis ATCC 114, unit assumed
[9] = tested on: PSEUDOMONAS AERUGINOSA 5007; assay: as above; conditions: P. aeruginosa 5007, unit assumed
ESCHERICHIA COLI SS = assay: as above; conditions: E. coli SS, unit assumed
[10] = tested on: STAPHYLOCOCCUS AUREUS 1775; assay: as above; conditions: S. aureus 1775, unit assumed
[11] = tested on: PSEUDOMONAS AERUGINOSA K799/WT; assay: as above; conditions: P. aeruginosa K799/WT, unit assumed
[12] = tested on: ENTEROBACTER AEROGENES ATCC 13048; assay: as above; conditions: E. aerogenes ATCC 13048, unit assumed
[13] = tested on: PSEUDOMONAS AERUGINOSA DPHD-2862; assay: as above; conditions: P. aeruginosa DPHD-2862, unit assumed
EN[…] ATCC 8043 = assay: as above; conditions: E. faecium ATCC 8043, unit assumed
Procedure, shortened: (§1)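 Twelve successive aqueous dilutions of compound in Brain Heart Infusion agar were inoculated with 1:100 culture dilutions (1:10 for slow growers such as Micrococcus, Streptococcus) by Steers replicator and incubated at 35-37° C for 20 to 24 hours. MIC was the lowest concentration giving no growth, slight haze or sparse colonies versus drug-free control.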

STR[…] 508 = assay: as above; conditions: S. agalactiae CMX 508, unit assumed
Procedure, shortened: as §1

M[…] ATCC 9341 = assay: as above; conditions: M. luteus ATCC 9341, unit assumed
Procedure, shortened: as §1

M[…] ATCC 4698 = assay: as above; conditions: M. luteus ATCC 4698, unit assumed
Procedure, shortened: as §1

ESCHERICHIA COLI H560 = assay: as above; conditions: E. coli H560, unit assumed
[14] = tested on: STAPHYLOCOCCUS EPIDERMIDIS 3519; conditions: S. epidermidis 3519; BHI agar; unit assumed
[15] = tested on: STAPHYLOCOCCUS AUREUS ATCC 6538P; assay: In vitro antibacterial activity, MIC, BHI agar dilution; conditions: S. aureus ATCC 6538P, 35-37° C., 20 to 24 hours, unit assumed
[16] = tested on: STAPHYLOCOCCUS AUREUS CMX 642A; assay: as above; conditions: S. aureus CMX 642A, unit assumed
CANDIDA ALBICANS CCH 442 = assay: as above; conditions: C. albicans CCH 442, unit assumed
ESCHERICHIA COLI JUHL = conditions: E. coli JUHL; BHI agar; unit assumed
[17] = tested on: STREPTOCOCCUS PYOGENES EES61; assay: In vitro antibacterial activity, MIC, BHI agar dilution; conditions: S. pyogenes EES61, unit assumed
[18] = tested on: PROVIDENCIA STUARTII CMX 640; conditions: P. stuartii CMX 640; BHI agar; unit assumed
[19] = tested on: PSEUDOMONAS AERUGINOSA K799/61; assay: In vitro antibacterial activity, MIC, BHI agar dilution; conditions: P. aeruginosa K799/61, unit assumed
PSEUDOMONAS CEPACIA 296I = assay: as above; conditions: P. cepacia 296I, unit assumed
ESCHERICHIA COLI DC-2 = assay: as above; conditions: E. coli DC-2, unit assumed
[20] = tested on: STAPHYLOCOCCUS AUREUS NCTC10649M; assay: as above; conditions: S. aureus NCTC10649M, unit assumed
[21] = tested on: STAPHYLOCOCCUS AUREUS CMX 553; assay: as above; conditions: S. aureus CMX 553, unit assumed
ESCHERICHIA COLI KNK 437 = conditions: E. coli KNK 437; BHI agar; unit assumed
[22] = tested on: STREPTOCOCCUS PYOGENES 930; assay: In vitro antibacterial activity, MIC, BHI agar dilution; conditions: S. pyogenes 930, unit assumed

Row | SMILES | MIC [1] | MIC [2] | MIC [3] | MIC [4] | MIC [5] | MIC [6] | MIC [7] | MIC [8] | MIC [9] | MIC (ESCHERICHIA COLI SS) | MIC [10] | MIC [11] | MIC [12] | MIC [13] | MIC (EN[…] ATCC 8043) | MIC (STR[…] 508) | MIC (M[…] ATCC 9341) | MIC (M[…] ATCC 4698) | MIC (ESCHERICHIA COLI H560) | MIC [14] | other results
1 | CCC1OC(=O)C(C)C(=O)C(C)C(OC2OC(C)CC(N(C)C)C2O)C(C)(OC)CC(C)C2=NC(CN3CCCCC3)CN3C(=O)OC1(C)C3C2C (stereo not drawn) [Example 96] | 0.39 mg/L (≈ 0.531 µM) | > 100 mg/L | 100 mg/L (≈ 136 µM) | 0.01 mg/L (≈ 0.0136 µM) | 0.2 mg/L (≈ 0.272 µM) | 100 mg/L (≈ 136 µM) | > 100 mg/L | 3.1 mg/L (≈ 4.22 µM) | > 100 mg/L | 0.39 mg/L (≈ 0.531 µM) | > 100 mg/L | > 100 mg/L | 100 mg/L (≈ 136 µM) | > 100 mg/L | 0.1 mg/L (≈ 0.136 µM) | 0.05 mg/L (≈ 0.068 µM) | 0.02 mg/L (≈ 0.0272 µM) | 0.39 mg/L (≈ 0.531 µM) | 12.5 mg/L (≈ 17 µM) | 0.39 mg/L (≈ 0.531 µM) | MIC [15]: 0.2 mg/L (≈ 0.272 µM); MIC [16]: 0.39 mg/L (≈ 0.531 µM); MIC (CANDIDA ALBICANS CCH 442): > 100 mg/L; MIC (ESCHERICHIA COLI JUHL): 25 mg/L (≈ 34 µM); MIC [17]: 0.02 mg/L (≈ 0.0272 µM); MIC [18]: > 100 mg/L; MIC [19]: 0.78 mg/L (≈ 1.06 µM); MIC (PSEUDOMONAS CEPACIA 296I): > 100 mg/L; MIC (ESCHERICHIA COLI DC-2): 25 mg/L (≈ 34 µM); MIC [20]: 0.39 mg/L (≈ 0.531 µM); MIC [21]: 0.39 mg/L (≈ 0.531 µM); MIC (ESCHERICHIA COLI KNK 437): 50 mg/L (≈ 68 µM); MIC [22]: > 100 mg/L
2 | CCC1OC(=O)C(C)C(=O)C(C)C(OC2OC(C)CC(N(C)C)C2O)C(C)(OC)CC(C)C2=NC(CN(C)C)CN3C(=O)OC1(C)C3C2C (stereo not drawn) [Example 97] | 0.2 mg/L (≈ 0.288 µM) | > 100 mg/L | 100 mg/L (≈ 144 µM) | 0.01 mg/L (≈ 0.0144 µM) | 0.2 mg/L (≈ 0.288 µM) | > 100 mg/L | > 100 mg/L | 12.5 mg/L (≈ 18 µM) | > 100 mg/L | 0.39 mg/L (≈ 0.561 µM) | > 100 mg/L | > 100 mg/L | 100 mg/L (≈ 144 µM) | > 100 mg/L | 0.1 mg/L (≈ 0.144 µM) | 0.02 mg/L (≈ 0.0288 µM) | 0.05 mg/L (≈ 0.072 µM) | 0.78 mg/L (≈ 1.12 µM) | 25 mg/L (≈ 36 µM) | 0.39 mg/L (≈ 0.561 µM) | MIC [15]: 0.2 mg/L (≈ 0.288 µM); MIC [16]: 0.2 mg/L (≈ 0.288 µM); MIC (CANDIDA ALBICANS CCH 442): > 100 mg/L; MIC (ESCHERICHIA COLI JUHL): 50 mg/L (≈ 72 µM); MIC [17]: 0.02 mg/L (≈ 0.0288 µM); MIC [18]: > 100 mg/L; MIC [19]: 0.78 mg/L (≈ 1.12 µM); MIC (PSEUDOMONAS CEPACIA 296I): > 100 mg/L; MIC (ESCHERICHIA COLI DC-2): 50 mg/L (≈ 72 µM); MIC [20]: 0.78 mg/L (≈ 1.12 µM); MIC [21]: 0.39 mg/L (≈ 0.561 µM); MIC (ESCHERICHIA COLI KNK 437): 50 mg/L (≈ 72 µM); MIC [22]: > 100 mg/L
3 | CC[C@H]1OC(=O)[C@H](C)C(=O)[C@H](C)[C@@H](O[C@@H]2O[C@H](C)C[C@H](N(C)C)[C@H]2O)[C@](C)(OC)C[C@@H](C)C2=N[C@H](COCc3ccccc3F)CN3C(=O)O[C@@]1(C)[C@H]3[C@H]2C [Example 102] | 0.2 mg/L (≈ 0.258 µM) | > 100 mg/L | > 100 mg/L | 0.01 mg/L (≈ 0.0129 µM) | 0.1 mg/L (≈ 0.129 µM) | > 100 mg/L | > 100 mg/L | 0.01 mg/L (≈ 0.0129 µM) | > 100 mg/L | 0.39 mg/L (≈ 0.503 µM) | > 100 mg/L | > 100 mg/L | > 100 mg/L | > 100 mg/L | 0.01 mg/L (≈ 0.0129 µM) | 0.01 mg/L (≈ 0.0129 µM) | ≤ 0.005 mg/L | 0.02 mg/L (≈ 0.0258 µM) | 50 mg/L (≈ 64.4 µM) | 0.2 mg/L (≈ 0.258 µM) | MIC [15]: 0.2 mg/L (≈ 0.258 µM); MIC [16]: 0.2 mg/L (≈ 0.258 µM); MIC (CANDIDA ALBICANS CCH 442): > 100 mg/L; MIC (ESCHERICHIA COLI JUHL): 100 mg/L (≈ 129 µM); MIC [17]: 0.01 mg/L (≈ 0.0129 µM); MIC [18]: > 100 mg/L; MIC [19]: 3.1 mg/L (≈ 4 µM); MIC (PSEUDOMONAS CEPACIA 296I): 50 mg/L (≈ 64.4 µM); MIC (ESCHERICHIA COLI DC-2): > 100 mg/L; MIC [20]: 0.1 mg/L (≈ 0.129 µM); MIC [21]: 0.1 mg/L (≈ 0.129 µM); MIC (ESCHERICHIA COLI KNK 437): > 100 mg/L; MIC [22]: > 100 mg/L
